Assay results published in patent US6770596B1, “Fused tricyclic compounds, process for their preparation, and herbicidal compositions containing them” (Ishihara Sangyo Kaisha Ltd., priority 2002, dated 2004).

Legend:
Type in all cases: in vivo
[1] = tested on: redroot pigweed (Amaranthus retroflexus, AMR); assay: Post-emerge test, redroot pigweed; details: 250 g ai/ha, 14 days after application, rating scale 0-100 (0 no damage, 100 complete death)
Outline: (§1)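 Plants grow in sandy loam pots for 8-21 days, then receive an acetone spray (187 l/ha, 0.25% v/v non-ionic surfactant) at 8-1000 g ai/ha. Plant damage is rated 0-100 at 14 days.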

[2] = tested on: sicklepod (Cassia obtusifolia, CAO); assay: Pre-emerge test, sicklepod; details: 250 g ai/ha, 14 days after application, rating scale 0-100 (0 no damage, 100 complete death)
Outline: (§2)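 Seeds planted 1 day pre-application in sandy loam soil mix; acetone solutions sprayed at 8 to 1000 g ai/ha (187 l/ha, flat fan nozzle, track sprayer). 14 d later, visual damage scored on a 0–100 scale.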

[3] = tested on: wheat (Triticum aestivum); assay: Post-emerge test, crop damage wheat; details: post-emerge, 250 g ai/ha, 14 days after application, rating scale 0-100 (0 no damage, 100 complete death)
Outline: as §1

[4] = tested on: large crabgrass (Digitaria sanguinalis, DIS); assay: Post-emerge test, large crabgrass; details: 250 g ai/ha, 14 days after application, rating scale 0-100 (0 no damage, 100 complete death)
Outline: as §1

[5] = tested on: green foxtail (Setaria viridis, SEV); assay: Post-emerge test, green foxtail; details: 250 g ai/ha, 14 days after application, rating scale 0-100 (0 no damage, 100 complete death)
Outline: as §1

[6] = tested on: lambsquarters (Chenopodium album, CHA); assay: Pre-emerge test, lambsquarters; details: 250 g ai/ha, 14 days after application, rating scale 0-100 (0 no damage, 100 complete death)
Outline: as §2

[7] = tested on: large crabgrass (Digitaria sanguinalis, DIS); assay: Pre-emerge test, large crabgrass; details: 250 g ai/ha, 14 days after application, rating scale 0-100 (0 no damage, 100 complete death)
Outline: as §2

[8] = tested on: velvetleaf (Abutilon theophrasti, ABT); assay: Post-emerge test, velvetleaf; details: 250 g ai/ha, 14 days after application, rating scale 0-100 (0 no damage, 100 complete death)
Outline: as §1

[9] = tested on: redroot pigweed (Amaranthus retroflexus, AMR); assay: Pre-emerge test, redroot pigweed; details: 250 g ai/ha, 14 days after application, rating scale 0-100 (0 no damage, 100 complete death)
Outline: as §2

[10] = tested on: lambsquarters (Chenopodium album, CHA); assay: Post-emerge test, lambsquarters; details: 250 g ai/ha, 14 days after application, rating scale 0-100 (0 no damage, 100 complete death)
Outline: as §1

[11] = tested on: velvetleaf (Abutilon theophrasti, ABT); assay: Pre-emerge test, velvetleaf; details: 250 g ai/ha, 14 days after application, rating scale 0-100 (0 no damage, 100 complete death)
Outline: as §2

[12] = tested on: common ragweed (Ambrosia artemisiifolia L., AML); assay: Pre-emerge test, common ragweed; details: 250 g ai/ha, 14 days after application, rating scale 0-100 (0 no damage, 100 complete death)
Outline: as §2

[13] = tested on: soybean (Glycine max L., var. Pella 86, SOY); assay: Post-emerge test, crop damage soybean; details: post-emerge, 250 g ai/ha, 14 days after application, rating scale 0-100 (0 no damage, 100 complete death)
Outline: as §1

[14] = tested on: field corn (Zea mays L., var. Dekalb 535, CORN); assay: Pre-emerge test, crop damage field corn; details: pre-emerge, 250 g ai/ha, 14 days after application, rating scale 0-100 (0 no damage, 100 complete death)
Outline: (§3)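 Seeds sown in sandy loam in 10 cm pots one day before pre-emergence spraying of acetone-dissolved compounds at 8–1000 g ai/ha (187 l/ha, track sprayer), greenhouse. Phytotoxicity rated visually 14 days after application on a 0–100 scale (0 no damage, 100 complete death).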

[15] = tested on: ivyleaf morningglory (Ipomoea hederacea, IPH); assay: Pre-emerge test, ivyleaf morningglory; details: 250 g ai/ha, 14 days after application, rating scale 0-100 (0 no damage, 100 complete death)
Outline: as §2

[16] = tested on: field corn (Zea mays L., var. Dekalb 535, CORN); assay: Post-emerge test, crop damage field corn; details: post-emerge, 250 g ai/ha, 14 days after application, rating scale 0-100 (0 no damage, 100 complete death)
Outline: as §1

[17] = tested on: wheat (Triticum aestivum); assay: Pre-emerge test, crop damage wheat; details: pre-emerge, 250 g ai/ha, 14 days after application, rating scale 0-100 (0 no damage, 100 complete death)
Outline: as §3

[18] = tested on: cocklebur (Xanthium strumariunt, XAS); assay: Post-emerge test, cocklebur; details: 250 g ai/ha, 14 days after application, rating scale 0-100 (0 no damage, 100 complete death)
Outline: as §1

[19] = tested on: soybean (Glycine max L., var. Pella 86, SOY); assay: Pre-emerge test, crop damage soybean; details: pre-emerge, 250 g ai/ha, 14 days after application, rating scale 0-100 (0 no damage, 100 complete death)
Outline: as §3

[20] = tested on: johnsongrass (Sorghum halepense, SOH); assay: Post-emerge test, johnsongrass; details: 250 g ai/ha, 14 days after application, rating scale 0-100 (0 no damage, 100 complete death)
Outline: as §1

[21] = tested on: barnyardgrass (Echinachloa crus-galli, ECC); assay: Pre-emerge test, barnyardgrass; details: 250 g ai/ha, 14 days after application, rating scale 0-100 (0 no damage, 100 complete death)
Outline: as §2

[22] = tested on: upland rice (Oryza sp., var.Tebonnet, RICE); assay: Pre-emerge test, crop damage upland rice; details: pre-emerge, 250 g ai/ha, 14 days after application, rating scale 0-100 (0 no damage, 100 complete death)
Outline: as §3

[23] = tested on: green foxtail (Setaria viridis, SEV); assay: Pre-emerge test, green foxtail; details: 250 g ai/ha, 14 days after application, rating scale 0-100 (0 no damage, 100 complete death)
Outline: as §2

[24] = tested on: barnyardgrass (Echinachloa crus-galli, ECC); assay: Post-emerge test, barnyardgrass; details: 250 g ai/ha, 14 days after application, rating scale 0-100 (0 no damage, 100 complete death)
Outline: as §1

[25] = tested on: ivyleaf morningglory (Ipomoea hederacea, IPH); assay: Post-emerge test, ivyleaf morningglory; details: 250 g ai/ha, 14 days after application, rating scale 0-100 (0 no damage, 100 complete death)
Outline: as §1

[26] = tested on: common ragweed (Ambrosia artemisiifolia L., AML); assay: Post-emerge test, common ragweed; details: 250 g ai/ha, 14 days after application, rating scale 0-100 (0 no damage, 100 complete death)
Outline: as §1

[27] = tested on: upland rice (Oryza sp., var.Tebonnet, RICE); assay: Post-emerge test, crop damage upland rice; details: post-emerge, 250 g ai/ha, 14 days after application, rating scale 0-100 (0 no damage, 100 complete death)
Outline: as §1

[28] = tested on: sicklepod (Cassia obtusifolia, CAO); assay: Post-emerge test, sicklepod; details: 250 g ai/ha, 14 days after application, rating scale 0-100 (0 no damage, 100 complete death)
Outline: as §1

[29] = tested on: johnsongrass (Sorghum halepense, SOH); assay: Pre-emerge test, johnsongrass; details: 250 g ai/ha, 14 days after application, rating scale 0-100 (0 no damage, 100 complete death)
Outline: as §2

[30] = tested on: cocklebur (Xanthium strumariunt, XAS); assay: Pre-emerge test, cocklebur; details: 250 g ai/ha, 14 days after application, rating scale 0-100 (0 no damage, 100 complete death)
Outline: as §2

Row | Structure (SMILES) | Post-emerge Herbicidal Activity AMR (phytotoxicity rating) [1] | Pre-emerge Herbicidal Activity CAO (phytotoxicity rating) [2] | Post-emerge crop damage WHEAT (phytotoxicity rating) [3] | Post-emerge Herbicidal Activity DIS (phytotoxicity rating) [4] | Post-emerge Herbicidal Activity SEV (phytotoxicity rating) [5] | Pre-emerge Herbicidal Activity CHA (phytotoxicity rating) [6] | Pre-emerge Herbicidal Activity DIS (phytotoxicity rating) [7] | Post-emerge Herbicidal Activity ABT (phytotoxicity rating) [8] | Pre-emerge Herbicidal Activity AMR (phytotoxicity rating) [9] | Post-emerge Herbicidal Activity CHA (phytotoxicity rating) [10] | Pre-emerge Herbicidal Activity ABT (phytotoxicity rating) [11] | Pre-emerge Herbicidal Activity AML (phytotoxicity rating) [12] | Post-emerge crop damage SOY (phytotoxicity rating) [13] | Pre-emerge crop damage CORN (phytotoxicity rating) [14] | Pre-emerge Herbicidal Activity IPH (phytotoxicity rating) [15] | Post-emerge crop damage CORN (phytotoxicity rating) [16] | Pre-emerge crop damage WHEAT (phytotoxicity rating) [17] | Post-emerge Herbicidal Activity XAS (phytotoxicity rating) [18] | Pre-emerge crop damage SOY (phytotoxicity rating) [19] | Post-emerge Herbicidal Activity SOH (phytotoxicity rating) [20] | other results
1 | CC1Oc2cc(F)c(-c3nn(C)c(OC(F)F)c3Cl)c3c2N(CC(=O)N3)C1=O (stereo not drawn) [1-56] | 100 | 100 | 30 | 100 | 100 | 100 | 100 | 100 | 100 | 100 | 100 | 100 | 100 | 50 | 100 | 20 | 55 | 100 | 15 | 85 | Pre-emerge Herbicidal Activity ECC (phytotoxicity rating) [21]: 100; Pre-emerge crop damage RICE (phytotoxicity rating) [22]: 75; Pre-emerge Herbicidal Activity SEV (phytotoxicity rating) [23]: 100; Post-emerge Herbicidal Activity ECC (phytotoxicity rating) [24]: 100; Post-emerge Herbicidal Activity IPH (phytotoxicity rating) [25]: 100; Post-emerge Herbicidal Activity AML (phytotoxicity rating) [26]: 100; Post-emerge crop damage RICE (phytotoxicity rating) [27]: 99; Post-emerge Herbicidal Activity CAO (phytotoxicity rating) [28]: 100; Pre-emerge Herbicidal Activity SOH (phytotoxicity rating) [29]: 100; Pre-emerge Herbicidal Activity XAS (phytotoxicity rating) [30]: 100
2 | Cn1nc(-c2c(F)cc3c4c2NC(=O)CN4C(=O)C(C)(C)O3)c(Cl)c1OC(F)F [1-59] | 100 | 99 | 35 | 99 | 99 | 100 | 99 | 100 | 100 | 100 | 100 | 100 | 45 | 40 | 85 | 10 | 45 | 100 | 15 | 65 | Pre-emerge Herbicidal Activity ECC (phytotoxicity rating) [21]: 99; Pre-emerge crop damage RICE (phytotoxicity rating) [22]: 50; Pre-emerge Herbicidal Activity SEV (phytotoxicity rating) [23]: 100; Post-emerge Herbicidal Activity ECC (phytotoxicity rating) [24]: 99; Post-emerge Herbicidal Activity IPH (phytotoxicity rating) [25]: 100; Post-emerge Herbicidal Activity AML (phytotoxicity rating) [26]: 80; Post-emerge crop damage RICE (phytotoxicity rating) [27]: 55; Post-emerge Herbicidal Activity CAO (phytotoxicity rating) [28]: 70; Pre-emerge Herbicidal Activity SOH (phytotoxicity rating) [29]: 100; Pre-emerge Herbicidal Activity XAS (phytotoxicity rating) [30]: 60
3 | CC1C(=O)Nc2c(-c3nn(C)c(OC(F)F)c3Cl)c(F)cc3c2N1C(=O)C(C)(C)O3 (stereo not drawn) [1-60] | 85 | 98 | 30 | 0 | 95 | 100 | 100 | 100 | 100 | 100 | 100 | 80 | 50 | 80 | 100 | 5 | 50 | 85 | 40 | 0 | Pre-emerge Herbicidal Activity ECC (phytotoxicity rating) [21]: 100; Pre-emerge crop damage RICE (phytotoxicity rating) [22]: 70; Pre-emerge Herbicidal Activity SEV (phytotoxicity rating) [23]: 100; Post-emerge Herbicidal Activity ECC (phytotoxicity rating) [24]: 98; Post-emerge Herbicidal Activity IPH (phytotoxicity rating) [25]: 100; Post-emerge Herbicidal Activity AML (phytotoxicity rating) [26]: 70; Post-emerge crop damage RICE (phytotoxicity rating) [27]: 0; Post-emerge Herbicidal Activity CAO (phytotoxicity rating) [28]: 60; Pre-emerge Herbicidal Activity SOH (phytotoxicity rating) [29]: 100; Pre-emerge Herbicidal Activity XAS (phytotoxicity rating) [30]: 85
4 | CCC1C(=O)Nc2c(-c3nn(C)c(OC(F)F)c3Cl)c(F)cc3c2N1C(=O)C(C)(C)O3 (stereo not drawn) [1-61] | 75 | 65 | 30 | 0 | 85 | 100 | 98 | 98 | 100 | 99 | 100 | 80 | 25 | 0 | 98 | 3 | 15 | 90 | 25 | 20 | Pre-emerge Herbicidal Activity ECC (phytotoxicity rating) [21]: 99; Pre-emerge crop damage RICE (phytotoxicity rating) [22]: 10; Pre-emerge Herbicidal Activity SEV (phytotoxicity rating) [23]: 100; Post-emerge Herbicidal Activity ECC (phytotoxicity rating) [24]: 35; Post-emerge Herbicidal Activity IPH (phytotoxicity rating) [25]: 100; Post-emerge Herbicidal Activity AML (phytotoxicity rating) [26]: 60; Post-emerge crop damage RICE (phytotoxicity rating) [27]: 30; Post-emerge Herbicidal Activity CAO (phytotoxicity rating) [28]: 30; Pre-emerge Herbicidal Activity SOH (phytotoxicity rating) [29]: 100; Pre-emerge Herbicidal Activity XAS (phytotoxicity rating) [30]: 60
